Measurements taken from US20240150368A1, “ULK INHIBITORS AND METHODS OF USE THEREOF” (Deciphera Pharmaceuticals, LLC, priority 2022, published 2024).

Tests used:
[1] = system: ULK kinase substrate ATG13 (pS318-ATG13) in HCT-116 cells; experiment: pATG13 levels of mutant KRas HCT-116 cells after treatment with ULK inhibitors in combination with trametinib (ELISA); format: cell-based, human
Protocol: pATG13 Levels of Mutant KRas HCT-116 Cells after Treatment with ULK Inhibitors in Combination with Trametinib
HCT-116 human colon cancer cells (10000 cells/well) were added to a 384-well tissue-culture treated plate in 50 μL of pre-warmed DMEM medium supplemented with 10% characterized fetal bovine serum (Invitrogen, Carlsbad, CA), 100 units/mL penicillin G, and 100 μg/mL streptomycin and allowed to grow overnight at 37° C., 5% CO2, and 95% humidity. The following day, 10 μL of media containing trametinib or DMSO as a control was added to wells. The final concentration of trametinib in wells was 250 nM. A dose response of a test compound (0.6 μL per well) was added. DMSO (0.6 μL) was added to control wells. The plate was briefly shaken to mix wells and then incubated at 37° C. overnight. The next day, the media was aspirated and cells were washed with Dulbecco's Phosphate Buffered Saline (Gibco). Cells were lysed using MPER lysis buffer (Pierce, Rockford, IL) containing Halt Phosphatase and Protease Inhibitors (Pierce, Rockford, IL) and Phosphatase inhibitor cocktail 2 (Sigma, St. Louis, MO) at 4° C. for 10 minutes with shaking.
(§1) Cellular levels of phospho-Serine 318 ATG13 (pATG13) were measured via an ELISA method. Total ATG13 Antibody (Cell Signaling Cat #13273) was used to coat the wells. The plate was incubated at 4° C. overnight and washed with ELISA wash buffer (Biolegend Cat #421601). The wells were then blocked with assay diluent (Biolegend Cat #421203) for 1 h at rt. Plate wells were washed with ELISA wash buffer. Cell lysate was added to wells and incubated at rt for 2 h. Plate wells were washed with ELISA wash buffer. Biotinylated pS318-ATG13 antibody (Rockland Immunochemicals Cat #600-401-C49) was diluted in assay diluent and added to each well and incubated at rt for 1 h. Plate wells were washed with ELISA wash buffer. Streptavidin linked to horseradish peroxidase (Thermo Fisher Cat #21140) was diluted in assay diluent and added to each well and incubated at rt for 1 h. Plate wells were washed with ELISA wash buffer. High sensitivity TMB substrate (Biolegend Cat #421101) was added to each well and incubated at rt for 20 minutes. The reaction was stopped with 2.0N sulfuric acid. The plate was analyzed at on a plate reader measuring absorbance at 450 nm and 540 nm (background). Signal was calculated by first subtracting the background absorbance at 540 nm from the absorbance at 450 nm for each well. Next, the background corrected absorbance at 450 nm from blank wells was subtracted from test wells. Data was compared to control wells to determine % ATG13 phosphorylation. GraphPad Prism was used to calculate IC50 values.

[2] = system: ULK kinase substrate ATG13 (pS318-ATG13) in T24 cells; experiment: pATG13 levels of mutant HRas T24 cells after treatment with ULK inhibitors in combination with trametinib (ELISA); format: cell-based, human; settings: in combination with trametinib 250 nM
Protocol: pATG13 Levels of Mutant HRas T24 Cells after Treatment with ULK Inhibitors in Combination with Trametinib
T24 human urinary bladder cancer cells (25000 cells/well) were added to a 96-well tissue-culture treated plate in 100 μL of pre-warmed DMEM medium supplemented with 10% characterized fetal bovine serum (Invitrogen, Carlsbad, CA), 100 units/mL penicillin G, and 100 μg/mL streptomycin and allowed to grow overnight at 37° C., 5% CO2, and 95% humidity. The following day, 100 μL of media containing trametinib or DMSO as a control was added to wells. The final concentration of trametinib in wells was 250 nM. A dose response of a test compound (0.5 μL per well) was added. DMSO (0.5 μL) was added to control wells. The plate was briefly shaken to mix wells and then incubated at 37° C. overnight. The next day, the media was aspirated and cells were washed with Dulbecco's Phosphate Buffered Saline (Gibco). Cells were lysed using MPER lysis buffer (Pierce, Rockford, IL) containing Halt Phosphatase and Protease Inhibitors (Pierce, Rockford, IL) and Phosphatase inhibitor cocktail 2 (Sigma, St. Louis, MO) at 4° C. for 10 min with shaking.
as §1, with “min.” for “minutes.”

| SMILES | IC50 [1] | IC50 [2] |
| --- | --- | --- |
| CC/C(Nc1cnn(C2CCN(C(C)C)CC2)c1)=C1/C(=O)Nc2ccc(C(=O)N(C)CC(F)(F)F)cc21 [Example 7] | ≤ 0.1 µM | ≤ 0.1 µM |
| CC/C(Nc1cnn(C2CCN(C(C)C)CC2)c1)=C1/C(=O)Nc2ccc(C(=O)NCC(F)(F)F)cc21 [Example 8] | ≤ 0.1 µM | ≤ 0.1 µM |
| CC/C(Nc1cnn(C2CCN(C(C)C)CC2)c1)=C1/C(=O)Nc2ccc(C(=O)N(C)CCOC)cc21 [Example 9] | ≤ 0.1 µM | 0.1 to 0.3 µM |
| CC/C(Nc1cnn(C2CCN(C(C)C)CC2)c1)=C1/C(=O)Nc2ccc(C(=O)NCCC#N)cc21 [Example 26] | ≤ 0.1 µM | – |
| CC/C(Nc1ccc(N2CCN(C(C)C)CC2)cc1)=C1/C(=O)Nc2ccc(C(=O)NC[C@H]3CCCO3)cc21 [Example 47] | ≤ 0.1 µM | – |
| CC/C(Nc1cnn(C2CCNCC2)c1)=C1/C(=O)Nc2ccc(C(=O)NC[C@H]3CCCO3)cc21 [Example 52] | ≤ 0.1 µM | – |
| CC/C(Nc1cnn(C2CC3CCC(C2)N3C)c1)=C1/C(=O)Nc2ccc(C(=O)NC[C@H]3CCCO3)cc21 (stereo partly shown) [Example 53] | ≤ 0.1 µM | – |
| CC/C(Nc1cnn(C2CN(C)C2)c1)=C1/C(=O)Nc2ccc(C(=O)NC[C@H]3CCCO3)cc21 [Example 54] | ≤ 0.1 µM | – |
| CC/C(Nc1ccc(N2CC3CC(C2)N3C)cc1)=C1/C(=O)Nc2ccc(C(=O)NCC(F)(F)F)cc21 [Example 60] | ≤ 0.1 µM | – |
| CC/C(Nc1ccc(N2C[C@H]3CN(C)C[C@H]3C2)cc1)=C1/C(=O)Nc2ccc(C(=O)NCC(F)(F)F)cc21 [Example 61] | ≤ 0.1 µM | – |
| CC/C(Nc1ccc(N2CCN(C(C)C)CC2)cn1)=C1/C(=O)Nc2ccc(C(=O)NC[C@H]3CCCO3)cc21 [Example 93] | ≤ 0.1 µM | – |
| CC/C(Nc1cnn(C2CCN(C(C)C)CC2)c1)=C1/C(=O)Nc2ccc(C(=O)NCCOC)cc21 [Example 98] | ≤ 0.1 µM | ≤ 0.1 µM |
| CC/C(Nc1cnn(C(F)(F)F)c1)=C1/C(=O)Nc2ccc(C(=O)NCC(F)(F)F)cc21 [Example 113] | ≤ 0.1 µM | – |
| CC/C(Nc1cnn(C2CCC2)c1)=C1/C(=O)Nc2ccc(C(=O)NCC(F)(F)F)cc21 [Example 117] | ≤ 0.1 µM | – |
| CC/C(Nc1cnn(C2CCN(C(C)C)CC2)c1)=C1/C(=O)Nc2ccc(C(C)=O)cc21 [Example 123] | 0.1 to 0.3 µM | – |

The next lines start with the values.

| IC50 [1] | IC50 [2] | SMILES |
| --- | --- | --- |
| ≤ 0.1 µM | – | CC/C(Nc1cnn(C(C)C)c1)=C1/C(=O)Nc2ccc(C(=O)NCC(F)(F)F)cc21 [Example 4, (Z)-3-(1-((1-isopropyl-1H-pyrazol-4-yl)amino)propylidene)-2-oxo-N-(2,2,2-trifluoroethyl)indoline-5-carboxamide] |
| ≤ 0.1 µM | ≤ 0.1 µM | CC/C(Nc1cnn(C2CCN(C(C)C)CC2)c1)=C1/C(=O)Nc2ccc(C(=O)NCC(C)C)cc21 [Example 16] |
| ≤ 0.1 µM | – | CC/C(Nc1cnn(C2CCN(C(C)C)CC2)c1)=C1/C(=O)Nc2ccc(C(=O)NC[C@@H](C)OC)cc21 [Example 58] |
| ≤ 0.1 µM | – | CC/C(Nc1cnn(CC)c1)=C1/C(=O)Nc2ccc(C(=O)NCC(F)(F)F)cc21 [Example 107] |
| ≤ 0.1 µM | – | CC/C(Nc1cnn(C(F)F)c1)=C1/C(=O)Nc2ccc(C(=O)NCC(F)(F)F)cc21 [Example 114] |
| ≤ 0.1 µM | – | CC/C(Nc1cnn(C(C)C)c1)=C1/C(=O)Nc2ccc(C(=O)NCC(C)C)cc21 [Example 130] |
| ≤ 0.1 µM | – | CC/C(Nc1cnn(C(C)C)c1)=C1/C(=O)Nc2ccc(C(=O)NCC(C)(C)F)cc21 [Example 135] |
| ≤ 0.1 µM | – | CC/C(Nc1cnn(C(C)C)c1)=C1/C(=O)Nc2ccc(C(=O)NCC3(C(F)(F)F)CC3)cc21 [Example 140] |
